Results published in article PMC11724075, “Small-molecule-induced ERBB4 activation to treat heart failure” (Nature Communications, 2025).
“And” between values parts separate entries of the source, which are not always exact repeats. Equal values may be shown once.

Tests used:
iAMs = experiment: H2O2-induced cell death assay in iAMs (Toxilight), also with LY294002; conditions: for total cell death of iAMs (percentage of total dead cells): 4 h; for total cell death of iAMs (percentage of total dead cells) / total cell death of iAMs: single replicates
Method: Subsequently, H2O2 (100 µM; Merck, H1009) was added and the cells were incubated for 4 h at 37 °C. All wells contained DMSO at a final concentration of 0.9%. […] After incubation at RT for 5 min, luminescence was measured using the Luminoskan Ascent.

ERBB4/ERBB4 = target: T1, ERBB4/ERBB4 (Homo sapiens, UniProt Q15303); experiment: PathHunter U2OS ERBB4/ERBB4 dimerization assay, 96-well dose-response; format: cell-based; conditions: for ERBB4/ERBB4 dimerization signal: relative to signal with 0.1 µM NRG1, single biological replicates
T1 construct: host or cells: U2OS (osteosarcoma cells), PathHunter engineered line
T1 sequence (Q15303 26-1308): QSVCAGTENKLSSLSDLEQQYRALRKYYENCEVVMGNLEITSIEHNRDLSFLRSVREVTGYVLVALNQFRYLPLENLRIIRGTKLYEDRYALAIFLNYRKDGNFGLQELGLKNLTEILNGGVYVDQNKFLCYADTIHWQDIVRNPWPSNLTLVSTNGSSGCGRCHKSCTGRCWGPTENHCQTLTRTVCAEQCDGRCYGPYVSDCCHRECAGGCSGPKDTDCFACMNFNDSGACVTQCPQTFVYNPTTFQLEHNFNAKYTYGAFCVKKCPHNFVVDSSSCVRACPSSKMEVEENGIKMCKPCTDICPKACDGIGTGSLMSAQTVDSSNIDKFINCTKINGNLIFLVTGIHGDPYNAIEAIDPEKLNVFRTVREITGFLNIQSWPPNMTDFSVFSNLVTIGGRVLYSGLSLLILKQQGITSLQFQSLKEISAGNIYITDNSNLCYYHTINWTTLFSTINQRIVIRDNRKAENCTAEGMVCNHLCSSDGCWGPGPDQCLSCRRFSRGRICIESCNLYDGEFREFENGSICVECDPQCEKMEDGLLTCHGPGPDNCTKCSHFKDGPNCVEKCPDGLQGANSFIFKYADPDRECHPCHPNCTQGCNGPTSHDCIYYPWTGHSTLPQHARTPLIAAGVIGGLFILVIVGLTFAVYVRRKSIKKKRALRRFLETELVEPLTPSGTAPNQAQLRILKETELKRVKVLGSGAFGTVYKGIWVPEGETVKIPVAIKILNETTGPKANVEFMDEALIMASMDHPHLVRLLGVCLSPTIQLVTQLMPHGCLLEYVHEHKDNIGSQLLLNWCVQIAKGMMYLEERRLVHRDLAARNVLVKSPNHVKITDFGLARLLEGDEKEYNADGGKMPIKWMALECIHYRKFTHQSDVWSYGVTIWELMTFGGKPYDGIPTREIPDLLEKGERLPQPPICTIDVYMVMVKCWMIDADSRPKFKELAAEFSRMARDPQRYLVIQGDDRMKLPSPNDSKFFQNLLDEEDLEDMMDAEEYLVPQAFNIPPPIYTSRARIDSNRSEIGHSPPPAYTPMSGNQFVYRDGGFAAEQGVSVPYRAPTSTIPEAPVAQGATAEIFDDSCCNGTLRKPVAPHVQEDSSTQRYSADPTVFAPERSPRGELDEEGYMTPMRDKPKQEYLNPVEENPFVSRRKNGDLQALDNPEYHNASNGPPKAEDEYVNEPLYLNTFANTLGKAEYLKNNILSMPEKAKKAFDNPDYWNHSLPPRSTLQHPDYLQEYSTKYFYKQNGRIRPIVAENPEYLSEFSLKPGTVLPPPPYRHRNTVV
T1 sequence (Q15303 26-1308): as above
Method: PathHunter U2OS ERBB4/ERBB4 (osteosarcoma cells; Eurofins, 93-0961C3), U2OS ERBB2/ERBB4 (osteosarcoma cells; Eurofins, 493-0960C3), ERBB2/ERBB3 (osteosarcoma cells; Eurofins, 93-1042C3) and ERBB1/ERBB1 (osteosarcoma cells; Eurofins, 93-0989C3) dimerization cell lines were cultured according to the manufacturer’s instructions. Briefly, cells were cultured in Cell Culture Reagent 103 (Eurofins, 92-3103 G) supplemented with 250 µg/mL Hygromycin B (Eurofins, 92-0029) and 500 µg/mL G418 (Eurofins, 92-0030), and were maintained at 37 °C in humidified atmosphere of 5% CO2. HCFs (Innoprot, P10454) were cultured in fibroblast medium (Innoprot, P60108) supplemented with 10% (v/v) fetal bovine serum (FBS, Innoprot), 10% (v/v) fibroblast growth supplement (Innoprot), and 1% (v/v) penicillin/streptomycin solution (Innoprot). iAMs[33] (kindly provided by LUMC) were cultured in Advanced DMEM F-12 (Thermo Fisher Scientific, 12634028) supplemented with 2% (v/v) heat-inactivated FBS (Thermo Fisher Scientific, 10270106), 1% (v/v) penicillin/streptomycin (10,000 units/mL and 10 mg/mL respectively, Thermo Fisher Scientific, 15140122), 1× GlutaMAX (Thermo Fisher Scientific, 35050061), and 100 ng/mL doxycycline (Tocris, 4090) for proliferation. To induce differentiation, iAMs were transferred to medium without doxycycline.
U2OS ERBB4/ERBB4 dimerization cells were seeded at a density of 5 × 10^4 cells/well in 100 µL Cell Plating 0 Reagent, in white 96-well plates (PerkinElmer, 6005680) and incubated for 24 h at 37 °C, 5% CO2. […] Next, 110 µL PathHunter Flash Detection Reagent was added to each well and incubated at RT for 1 h after which the luminescence signal was measured using the Luminoskan Ascent (Thermo Fisher Scientific). […] The same experimental set-up was used for the U2OS ERBB2/ERBB4, U2OS ERBB2/ERBB3 and U2OS ERBB1/ERBB1 dimerization cell lines.
Category Parameter Description
Assay Type of assay PathHunter Dimerization assays provide a robust, highly sensitive and easy-to-use cell-based functional assay to study various protein activities in a cell. The assay s use
Enzyme Fragment Complementation technology, where the b-galactosidase (b-gal) enzyme is split into two fragments, ProLink and Enzyme Acceptor. Independently these fragments have no b-gal activity. However, when forced to complement through protein-protein interactions, they form an active b-gal enzyme. The PathHunter Dimerization assay detects ligand induced dimerization of two subunits of a receptor-dimer pair. The cells have been engineered to co-express one receptor subunit (ERBB4) fused to Enzyme
Donor, and a second dimer partner (ERBB4) fused to Enzyme Acceptor. Binding of an agonist to one receptor subunit induces it to interact with its dimer partner, forcing complementation of the two enzyme […]
functional enzyme that hydrolyzes a substrate to generate a chemiluminescent signal.
Target ErbB4 receptor (RTK receptor)
Primary measurement Detection of chemiluminescent signal, induced by small-molecule ErbB4 agonists
Key reagents PathHunter Dimerization ErbB4/ErbB4 Cell
Line (93-0961C3) - PathHunter Flash
Detection Kit (03 -0247) - AssayComplete Cell
AssayComplete Cell Detachment Reagent
(92-0009) - AssayComplete Thawing Reagent
T3 (92-4103TR) - AssayComplete Freezing
Assay protocol https://www.discoverx.com/catalog/pathhun

HCFs = experiment: RT-qPCR on signaling pathway genes in HCFs; format: cell-based, human; conditions: single replicates
Method: RNA was extracted using Nucleospin RNA XS (Macherey-Nagel, 740902.50) according to the manufacturer’s instructions. For cDNA synthesis, total RNA was added to a mixture containing buffer with random hexamers and reverse transcriptase enzyme (TaqMan reverse transcription reagents, Applied biosystems, N8080234) after which samples were incubated for 10 min at 25 °C, 30 min at 48 °C, and 5 min at 95 °C. RT-qPCR was performed on QuantStudio 3 Real-time PCR system (Applied Biosystems) using Taqman Universal PCR Master Mix (Applied Biosystems, 4304437) and Taqman primers according to the manufacturer’s instructions. Settings were as follows: […] followed by 10 min at 95 °C, 40 cycles (45 cycles for ERBB4) of denaturation at 95 °C for 15 s, and 1 min at 60 °C. All reactions were run in duplicate, and all data were normalized against housekeeping genes glyceraldehyde-3-phosphate dehydrogenase (GAPDH), beta-actin (ACTB), or phosphoglycerate kinase 1 (PGK1). Expression levels were calculated using the comparative cycle method and expressed as fold change (FC) to appropriate controls. The following TaqMan primers were used (Thermo Fisher Scientific): GAPDH (Hs02758991_g1, Mm99999915_g1 and Rn01775763_g1), PGK1 (Hs99999906_m1), ID2 (Hs04187239_m1), BMPR1B (Hs01010965_m1), CACNA2D4 (Hs00297782_m1), DUSP2 (Hs00358879_m1), NR4A1 (Hs00374226_m1), SGK1 (Hs00178612_m1), COL1A1 (Mm00801666_g1), COL3A1 (Hs00943809_m1 and Mm00802305_g1), ERBB4 (Hs00955525_m1 and Rn00572447_m1), ACTB (Mm02619580_g1) and ANP (Mm01255747_g1).

## Cc1sc2nc(SC(C)C(=O)NCc3ccc4c(c3)OCO4)n(-c3ccccc3)c(=O)c2c1C (centres unmarked) [NA-1]
iAMs; H2O2 100 µM
  effect on cardiomyocyte survival (in words): did not have a significant effect on cardiomyocyte survival
iAMs; NA-1, 1e-6 M, H2O2 100 µM
  total cell death of iAMs (percentage of total dead cells): 60.0225 and 62.2886 and 68.0221
iAMs; NA-1, 4e-6 M, H2O2 100 µM
  total cell death of iAMs (percentage of total dead cells): 64.78 and 60.57 and 53.32 and 58.95
iAMs; NA-1, 8e-6 M, H2O2 100 µM
  total cell death of iAMs (percentage of total dead cells): 63.16 and 63.84 and 49.27 and 56.61
iAMs; NA-1, 1.6e-5 M, H2O2 100 µM
  total cell death of iAMs (percentage of total dead cells): 61.57 and 64.49 and 50.09 and 59.17
iAMs; NA-1, 3.2e-5 M, H2O2 100 µM
  total cell death of iAMs (percentage of total dead cells): 63.24 and 58.6 and 49.06 and 56.03
ERBB4/ERBB4
  induction of ERBB4 dimerization (in words): did not activate ERBB4
ERBB4/ERBB4; 3.125e-8 M
  ERBB4/ERBB4 dimerization signal: 0
ERBB4/ERBB4; 1.25e-7 M
  ERBB4/ERBB4 dimerization signal: -1.9 and -5.83
ERBB4/ERBB4; 5e-7 M
  ERBB4/ERBB4 dimerization signal: -1.92 and -5.07
ERBB4/ERBB4; 2e-6 M
  ERBB4/ERBB4 dimerization signal: -1.85 and -3.89
ERBB4/ERBB4; 8e-6 M
  ERBB4/ERBB4 dimerization signal: -1.52 and -5.16
ERBB4/ERBB4; 3.2e-5 M
  ERBB4/ERBB4 dimerization signal: -1.83 and -4.37

## neuregulin-1 [NRG1]
HCFs
  BMPR1B mRNA, normalized FC compared to vehicle: 0.8467 and 0.8788 and 0.6722 and 0.547
  CACNA2D4 mRNA, normalized FC compared to vehicle: 0.587 and 0.7244 and 0.5309 and 0.2575
  DUSP2 mRNA, normalized FC compared to vehicle: 0.9928 and 0.6481 and 0.6778 and 0.7386
  ID2 mRNA, normalized FC compared to vehicle: 0.8573 and 0.8679 and 0.8306 and 0.7992
  NR4A1 mRNA, normalized FC compared to vehicle: 0.5297 and 0.9275 and 0.7063 and 0.8111
  SGK1 mRNA, normalized FC compared to vehicle: 0.7797 and 0.9219 and 0.8239 and 0.6521

## O=C(NC1CC1)C(Sc1nc2ccccc2c(=O)n1C1CCCC1)c1ccccc1 (centres unmarked) [EF-1]
iAMs; EF-1 + SiERBB4, 1e-6 M, H2O2 100 µM
  total cell death of iAMs (percentage of total dead cells): 68.0221 and 60.0225 and 62.2886
iAMs; EF-1 + SiERBB4, 4e-6 M, H2O2 100 µM
  total cell death of iAMs (percentage of total dead cells): 72.51 and 56.29 and 70.83
iAMs; EF-1 + SiERBB4, 8e-6 M, H2O2 100 µM
  total cell death of iAMs (percentage of total dead cells): 69.73 and 50.25 and 72.39
iAMs; EF-1 + SiERBB4, 1.6e-5 M, H2O2 100 µM
  total cell death of iAMs (percentage of total dead cells): 67.67 and 53.83 and 80.13
iAMs; EF-1 + SiERBB4, 3.2e-5 M, H2O2 100 µM
  total cell death of iAMs (percentage of total dead cells): 64.65 and 55.01 and 72.56
iAMs; EF-1 + SiScr, 1e-6 M, H2O2 100 µM
  total cell death of iAMs (percentage of total dead cells): 62.2886 and 68.0221 and 60.0225
iAMs; EF-1 + SiScr, 4e-6 M, H2O2 100 µM
  total cell death of iAMs (percentage of total dead cells): 34.38 and 49.85 and 69.84
iAMs; EF-1 + SiScr, 8e-6 M, H2O2 100 µM
  total cell death of iAMs (percentage of total dead cells): 29.53 and 51.53 and 63.09
iAMs; EF-1 + SiScr, 1.6e-5 M, H2O2 100 µM
  total cell death of iAMs (percentage of total dead cells): 23.16 and 29.77 and 55.38
iAMs; EF-1 + SiScr, 3.2e-5 M, H2O2 100 µM
  total cell death of iAMs (percentage of total dead cells): 15.16 and 25.21 and 30.15
iAMs; H2O2/EF-1 (32 µM) + LY294002 (20 µM, 10 min pretreatment)
  total cell death of iAMs: 37.778 and 30.0948 and 30.3358 and 33.2686
iAMs; H2O2/EF-1 (32 µM), without LY294002
  total cell death of iAMs: 27.2571 and 19.0561 and 18.1394 and 25.7513
iAMs; at its highest dose
  decrease of H2O2-induced cardiomyocyte cell death: more than 75%
ERBB4/ERBB4; 3.125e-8 M
  ERBB4/ERBB4 dimerization signal: 0
ERBB4/ERBB4; 6.25e-8 M
  ERBB4/ERBB4 dimerization signal: -1.6 and -0.07 and 2.169 and 1.573
ERBB4/ERBB4; 1.25e-7 M
  ERBB4/ERBB4 dimerization signal: -0.55 and -0.15 and 2.599 and 0.9551
ERBB4/ERBB4; 2.5e-7 M
  ERBB4/ERBB4 dimerization signal: -1.94 and 0.74 and 2.315 and -0.7582
ERBB4/ERBB4; 5e-7 M
  ERBB4/ERBB4 dimerization signal: -0.55 and 0.26 and 2.323 and -0.4275
ERBB4/ERBB4; 1e-6 M
  ERBB4/ERBB4 dimerization signal: -2 and 0.47 and 4.362 and -0.05827
ERBB4/ERBB4; 2e-6 M
  ERBB4/ERBB4 dimerization signal: 1.2 and 2.97 and 7.682 and 3.162
ERBB4/ERBB4; 4e-6 M
  ERBB4/ERBB4 dimerization signal: 7.41 and 5.76 and 13.8923 and 7.932
ERBB4/ERBB4; 8e-6 M
  ERBB4/ERBB4 dimerization signal: 16.72 and 8.19 and 23.4633 and 9.465
ERBB4/ERBB4; 1.6e-5 M
  ERBB4/ERBB4 dimerization signal: 24.8 and 17.62 and 27.6207 and 19.8392
ERBB4/ERBB4; 3.2e-5 M
  ERBB4/ERBB4 dimerization signal: 30.57 and 22.84 and 33.2287 and 25.0905
ERBB4/ERBB4; % of the effect of NRG1
  Emax, maximum response relative to NRG1: 27.9 ± 4.8%
HCFs
  BMPR1B mRNA, normalized FC compared to vehicle: 0.7674 and 0.7715 and 0.7478 and 0.6131
  CACNA2D4 mRNA, normalized FC compared to vehicle: 0.6726 and 0.5139 and 0.5641 and 0.6199
  DUSP2 mRNA, normalized FC compared to vehicle: 0.652 and 0.6672 and 0.8266 and 0.7945
  ID2 mRNA, normalized FC compared to vehicle: 0.7995 and 0.6935 and 0.711 and 0.7833
  NR4A1 mRNA, normalized FC compared to vehicle: 0.6281 and 0.8412 and 0.7864 and 0.7806
  SGK1 mRNA, normalized FC compared to vehicle: 0.5165 and 0.6795 and 0.6992 and 0.5618
